Data from PubChem BioAssay AID1259407 (Chemical Carcinogenesis Research Information System (CCRIS), 2018).
Activity calls are given as the source filed them. The rule behind the calls is not given here.

System: CCRIS mutagenicity, Ames/micronucleus/aberration tests
Assay: CCRIS mutagenicity studies
[1] = Test System: AMES SALMONELLA TYPHIMURIUM, Strain/Indicator: TA100, Metabolic Activation: NONE, Method: PREINCUBATION
[2] = Test System: AMES SALMONELLA TYPHIMURIUM, Strain/Indicator: TA100, Metabolic Activation: NONE, Method: STANDARD PLATE
[3] = Test System: AMES SALMONELLA TYPHIMURIUM, Strain/Indicator: TA100, Metabolic Activation: RAT, LIVER, S-9, AROCLOR 1254, Method: STANDARD PLATE
[4] = Test System: AMES SALMONELLA TYPHIMURIUM, Strain/Indicator: TA98, Metabolic Activation: NONE, Method: STANDARD PLATE
[5] = Test System: AMES SALMONELLA TYPHIMURIUM, Strain/Indicator: TA98, Metabolic Activation: RAT, LIVER, S-9, AROCLOR 1254, Method: STANDARD PLATE
[6] = Test System: AMES SALMONELLA TYPHIMURIUM, Strain/Indicator: TA1535, Metabolic Activation: NONE, Method: STANDARD PLATE
[7] = Test System: AMES SALMONELLA TYPHIMURIUM, Strain/Indicator: TA1535, Metabolic Activation: RAT, LIVER, S-9, AROCLOR 1254, Method: STANDARD PLATE
[8] = Test System: AMES SALMONELLA TYPHIMURIUM, Strain/Indicator: TA1537, Metabolic Activation: NONE, Method: STANDARD PLATE
[9] = Test System: AMES SALMONELLA TYPHIMURIUM, Strain/Indicator: TA1537, Metabolic Activation: RAT, LIVER, S-9, AROCLOR 1254, Method: STANDARD PLATE

Measured: mutagenic call

CBr
active: Test System: AMES SALMONELLA TYPHIMURIUM, Strain/Indicator: TA100, Metabolic Activation: HAMSTER, LIVER, S-9, AROCLOR 1254 (30%), Method: DESICCATOR active; positive | Test System: AMES SALMONELLA TYPHIMURIUM, Strain/Indicator: TA100, Metabolic Activation: NONE, Method: DESICCATOR active; positive | Test System: AMES SALMONELLA TYPHIMURIUM, Strain/Indicator: TA100, Metabolic Activation: NONE, Method: GAS EXPOSURE active; positive | [1] active; positive | [2] active; positive | Test System: AMES SALMONELLA TYPHIMURIUM, Strain/Indicator: TA100, Metabolic Activation: RAT, LIVER, S-9, AROCLOR 1254 (30%), Method: DESICCATOR active; positive | Test System: AMES SALMONELLA TYPHIMURIUM, Strain/Indicator: TA100, Metabolic Activation: RAT, LIVER, S-9, AROCLOR 1254, Method: PREINCUBATION active; positive | [3] active; positive | Test System: AMES SALMONELLA TYPHIMURIUM, Strain/Indicator: TA100, Metabolic Activation: RAT, LIVER, S-9, SODIUM PHENOBARBITAL AND 5,6-BENZOFLAVONE, Method: GAS EXPOSURE active; positive | Test System: AMES SALMONELLA TYPHIMURIUM, Strain/Indicator: TA1535, Metabolic Activation: NONE, Method: GAS EXPOSURE active; positive | Test System: AMES SALMONELLA TYPHIMURIUM, Strain/Indicator: TA1535, Metabolic Activation: RAT, LIVER, S-9, SODIUM PHENOBARBITAL AND 5,6-BENZOFLAVONE, Method: GAS EXPOSURE active; positive | Test System: E. COLI, Strain/Indicator: WP2UVRA, Metabolic Activation: NONE, Method: GAS EXPOSURE active; positive | Test System: E. COLI, Strain/Indicator: WP2UVRA, Metabolic Activation: RAT, LIVER, S-9, SODIUM PHENOBARBITAL AND 5,6-BENZOFLAVONE, Method: GAS EXPOSURE active; positive
inactive: Test System: AMES SALMONELLA TYPHIMURIUM, Strain/Indicator: TA98, Metabolic Activation: HAMSTER, LIVER, S-9, AROCLOR 1254 (30%), Method: DESICCATOR inactive; negative | Test System: AMES SALMONELLA TYPHIMURIUM, Strain/Indicator: TA98, Metabolic Activation: NONE, Method: DESICCATOR inactive; negative | Test System: AMES SALMONELLA TYPHIMURIUM, Strain/Indicator: TA98, Metabolic Activation: NONE, Method: GAS EXPOSURE inactive; negative | Test System: AMES SALMONELLA TYPHIMURIUM, Strain/Indicator: TA98, Metabolic Activation: RAT, LIVER, S-9, AROCLOR 1254 (30%), Method: DESICCATOR inactive; negative | Test System: AMES SALMONELLA TYPHIMURIUM, Strain/Indicator: TA98, Metabolic Activation: RAT, LIVER, S-9, SODIUM PHENOBARBITAL AND 5,6-BENZOFLAVONE, Method: GAS EXPOSURE inactive; negative | Test System: AMES SALMONELLA TYPHIMURIUM, Strain/Indicator: TA1537, Metabolic Activation: NONE, Method: GAS EXPOSURE inactive; negative | Test System: AMES SALMONELLA TYPHIMURIUM, Strain/Indicator: TA1537, Metabolic Activation: RAT, LIVER, S-9, SODIUM PHENOBARBITAL AND 5,6-BENZOFLAVONE, Method: GAS EXPOSURE inactive; negative

CNc1ccc(O)c2c1C(=O)c1c(O)ccc(NC)c1C2=O
inactive: Test System: Ames Salmonella typhimurium, Strain/Indicator: TA102, Metabolic Activation: None, Method: Preincubation inactive; negative
active: Test System: Ames Salmonella typhimurium, Strain/Indicator: TA98, Metabolic Activation: None, Method: Preincubation active; positive | Test System: Ames Salmonella typhimurium, Strain/Indicator: TA100, Metabolic Activation: None, Method: Preincubation active; positive | Test System: Ames Salmonella typhimurium, Strain/Indicator: TA1535, Metabolic Activation: None, Method: Preincubation active; positive

NC1CCCC(N)C1 (centres undefined)
inactive: Test System: AMES SALMONELLA TYPHIMURIUM, Strain/Indicator: TA98, Metabolic Activation: NONE, Method: PREINCUBATION inactive; negative | Test System: AMES SALMONELLA TYPHIMURIUM, Strain/Indicator: TA98, Metabolic Activation: RAT, LIVER, S-9, PCB, Method: PREINCUBATION inactive; negative | [1] inactive; negative | Test System: AMES SALMONELLA TYPHIMURIUM, Strain/Indicator: TA100, Metabolic Activation: RAT, LIVER, S-9, PCB, Method: PREINCUBATION inactive; negative

CCCCC(CC)COP(=O)(OCC(CC)CCCC)OCC(CC)CCCC (centres undefined)
inactive: End Point: IN VITRO CHROMOSOMAL ABERRATIONS, Test System: CHO CELLS, Metabolic Activation: NONE inactive; negative | End Point: IN VITRO CHROMOSOMAL ABERRATIONS, Test System: CHO CELLS, Metabolic Activation: RAT, LIVER, S-9, AROCLOR 1254 inactive; negative | Test System: AMES SALMONELLA TYPHIMURIUM, Strain/Indicator: TA98, Metabolic Activation: HAMSTER, LIVER, S-9, AROCLOR 1254, Method: STANDARD PLATE inactive; negative | [4] inactive; negative | [5] inactive; negative | Test System: AMES SALMONELLA TYPHIMURIUM, Strain/Indicator: TA100, Metabolic Activation: HAMSTER, LIVER, S-9, AROCLOR 1254, Method: STANDARD PLATE inactive; negative | [2] inactive; negative | [3] inactive; negative | Test System: AMES SALMONELLA TYPHIMURIUM, Strain/Indicator: TA1535, Metabolic Activation: HAMSTER, LIVER, S-9, AROCLOR 1254, Method: STANDARD PLATE inactive; negative | [6] inactive; negative | [7] inactive; negative | Test System: AMES SALMONELLA TYPHIMURIUM, Strain/Indicator: TA1537, Metabolic Activation: HAMSTER, LIVER, S-9, AROCLOR 1254, Method: STANDARD PLATE inactive; negative | [8] inactive; negative | [9] inactive; negative

CC1(C)[C@@H](O[C@H]2O[C@H](C(=O)O)[C@@H](O)[C@H](O)[C@H]2O[C@@H]2O[C@H](C(=O)O)[C@@H](O)[C@H](O)[C@H]2O)CC[C@]2(C)[C@H]3C(=O)C=C4[C@@H]5C[C@@](C)(C(=O)O)CC[C@]5(C)CC[C@@]4(C)[C@]3(C)CC[C@@H]12
inactive: End Point: IN VIVO MICRONUCLEUS, Test System: BONE MARROW POLYCHROMATIC ERYTHROCYTES, Species: MOUSE, Strain/Sex: DDY/MALE, Route: IP inactive; negative | Test System: AMES SALMONELLA TYPHIMURIUM, Strain/Indicator: TA97A, Metabolic Activation: NONE, Method: PREINCUBATION inactive; negative | Test System: AMES SALMONELLA TYPHIMURIUM, Strain/Indicator: TA97A, Metabolic Activation: RAT, LIVER, S-9, AROCLOR 1254, Method: PREINCUBATION inactive; negative | [4] inactive; negative | [5] inactive; negative | [2] inactive; negative | [3] inactive; negative | Test System: AMES SALMONELLA TYPHIMURIUM, Strain/Indicator: TA102, Metabolic Activation: NONE, Method: PREINCUBATION inactive; negative | Test System: AMES SALMONELLA TYPHIMURIUM, Strain/Indicator: TA102, Metabolic Activation: RAT, LIVER, S-9, AROCLOR 1254, Method: PREINCUBATION inactive; negative | [6] inactive; negative | [7] inactive; negative | [8] inactive; negative | [9] inactive; negative | Test System: AMES SALMONELLA TYPHIMURIUM, Strain/Indicator: TA1538, Metabolic Activation: NONE, Method: STANDARD PLATE inactive; negative | Test System: AMES SALMONELLA TYPHIMURIUM, Strain/Indicator: TA1538, Metabolic Activation: RAT, LIVER, S-9, AROCLOR 1254, Method: STANDARD PLATE inactive; negative | Test System: E. COLI, Strain/Indicator: WP2, Metabolic Activation: NONE, Method: STANDARD PLATE inactive; negative | Test System: E. COLI, Strain/Indicator: WP2, Metabolic Activation: RAT, LIVER, S-9, AROCLOR 1254, Method: STANDARD PLATE inactive; negative
